Laboratory results as given in patent publication US20060025446A1, “Propargyl nitroxides and indanyl nitroxides and their use for the treatment of neurologic diseases and disorders” (priority 2004, published 2006).
Where a name gives a salt, the structure may show the parent alone.

Legend:
[1] = tested on: Human Red Blood Cells; experiment: Hypochlorite (HOCl) hemolysis of human red blood cells model; format: cell-based; settings: antioxidant activity; compounds dissolved at 5 mg/ml, aliquots tested
Procedure: Hypochlorite (HOCl) Hemolysis of Human Red Blood Cells Model
The reaction is based on the ability of oxygen radicals to lyse red blood cells. Antioxidant compounds such as ascorbic acid and 4-hydroxy-TEMPO (TEMPOL) prevent membrane damage in a dose dependent manner. All compounds were dissolved at a concentration of 5 mg/ml and aliquots were tested for their ability to prevent lysis.

[2] = Chemiluminescence model (without cells): Luminol, SIN-1, selenite, BSA; format: biochemical; settings: antioxidant activity
Description: Chemiluminescence Model (Without Cells)
Luminescence was generated in vials containing the following compounds: Luminol, SIN-1 (a generator of NO radicals), selenite, BSA. This reaction is inhibited by scavengers of peroxynitirites as well as scavengers of NO and other oxygen free radicals.

[3] = tested on: Neutrophils; experiment: PMA-induced oxidative burst in neutrophils model (DCFH, FACS); format: cell-based; settings: PMA 10 ng/ml for 30 minutes
Procedure: PMA-Induced Oxidative Burst in Neutrophils Model
The cells were activated with PMA (10 ng/ml) for 30 minutes and incubated with 2,7-dichlorodihydrofluorescin diacetate (DCFH), which is converted to a fluorescent compound in the presence of oxygen radicals and peroxynitrites. The fluorescent cells were detected in a cell sorter (FACS).

[4] = tested on: Experimental Allergic Encephalomyelitis (EAE) using PLP 139-151; experiment: PLP induced EAE in mice; format: in vivo, Female SJL mice; settings: 50 mg/kg/day orally by gavage, day 1 to day 20; for Incid.: sick animals/animals in group
Procedure: Induction of Experimental Allergic Encephalomyelitis (EAE) Using PLP
Female SJL mice (12 weeks old) were inoculated with the encephalitogienic peptide of proteolipid protein (PLP 139-151) synthesized to a purity of 70% by Sigma (Israel). 150 μg of the peptide were emulsified in complete Freund's adjuvant (CFA) (Difco Laboratories), supplemented with killed mycobacteria (5 mg/ml) and pertussis toxin (200 ng) (Sigma), given subcutaneously at day of inoculation only.
Mice were kept at specific pathogen free (SPF) conditions and given water and food ad libitum. Mice were daily observed for clinical signs from day 10 until day 18-21 post inoculation.
Treatment with Test Compounds
Compounds were dissolved in 2-hydroxypropyl beta cyclodextrin (40% water solution). Treatment started at day 1 post inoculation. The compounds B10 and A10 (50 mg/kg) and vehicle were given orally by gavage every day until day 20 post inoculation.
Interpretation of Results: Calculation of the Incidence of Disease
The number of sick animals in each group was summed. The percentage of sick animals in each group was calculated.
Calculation of the Mean Maximal Score (MMS)
The maximal scores of each of the 15 mice in the group were summed.
The mean maximal score of the group were calculated as follows: Σ maximal score of each mouse/number of mice in the group. Calculation of the Mean Disease Duration (MDD)
The mean duration of disease expressed in days was calculated as follows: Σ duration of disease of each mouse/number of mice in the group. Calculation of the Group Mean Score (GMS)
The scores of each of the 15 mice in the group was summed and the mean score per day was calculated.
The group mean score was calculated as follows: Σ total score of each mouse per day/number of mice in the group.

[5] = tested on: NGF-Differentiated PC12 Cells; experiment: MPP+ Parkinson neurotoxicity/neuroprotection model, LDH release; format: cell-based; settings: MPP+ 1000 μM, 48-52 hr
Procedure: The Parkinson Neurotoxicity Model of 1-methyl-4-phenyl piridinium (MPP+ Iodine Salt, 1000 μM for 48-52 hr), Using 7-10 Days NGF-Differentiated PC12 Cells.
The slow developing cell death in this model is believed to be a result of inhibition of mitochondrial complex I and generation of oxygen and nitrogen radicals. Therefore the antioxidant tempol (4-HYDROXY-TEMPO) was used as a positive standard in the screening experiments with the compounds. The following detailed protocol was employed for testing.
MPP+—Neurotoxicity/Neuroprotection Protocol:
• 1. PC12 cells (2×10^5 cells) were seeded on NUNC 6-well dishes coated with 200 μg/ml collagen (rat tail type I) and grown in DMEM medium containing 7% Fetal Calf Serum, 7% Horse Serum and […] Penicilin and 100 ug/ml Streptomycin. • 2. Differentiation of the cells for 7-10 days was achieved by treatment with mouse β-NGF (β-nerve growth factor) (50 ng/ml) added freshly every 2-3 days to the culture medium. • 3. Cultures were progressively evaluated for the differentiation response expressed by elongation of neurites, increased percentage of responsive cells, and other morphological parameters. • 4. At the day of the experiment, the medium of the differentiated cultures was replaced to fresh medium containing NGF (50 ng/ml). • 5. […] LDH (lactic dehydrogenase) release to the medium (neurotoxicity) was measured after 48-52 hr after the addition of MPP+, using an ELISA reader. […]
Neurotoxicity is defined as the percentage of LDH released to the medium at the end of the experiment calculated according to the following formula: {LDH(MPP)−LDH(control)}/{LDH(total)−LDH(control)}×100=Neurotoxicity (% of total cell death) • LDH(MPP): LDH release at the end of MPP+ insult • LDH(control): LDH release at the end of experiment from untreated cultures • LDH(total): LDH released from the cultures upon freezing at −80° C. and thawing at room temperature (release of total/maximal LDH present in the culture) […]

[6] = tested on: EAE using MOG (Myelin Oligodendrocyte Glycoprotein); experiment: MOG induced EAE in mice; format: in vivo, Female C57B1/6 mice
[7] = dose 50 mg/kg/day, gavage x2/day, day 1 to 30

Compound	HOCl (% lysis) [1]	Chemiluminescence (% inhib.) [2]	PMA (% cells activated) [3]	MDD (mean disease duration) [4]	MDO (mean day of onset) [4]	MMS (mean maximal score) [4]	Mean score [4]	Incid. [4]	other results
O=C1O[C@H]([C@@H](O)CO)C(O)=C1O [Ascorbic acid]	100%	100%	100%						
C#CCN[C@@H]1CCc2ccc(OC(=O)NC3CC(C)(C)N([O])C(C)(C)C3)cc21.Cl [Compound A10, (2,2,6,6-Tetramethyl-1-piperidinyloxy-4-yl)-carbamic acid 3(R)-prop-2-ynylamino-indan-5-yl ester HCl]				5.8 ± 0.86 days	11 ± 0.2	5.0 ± 0.8	3.4 ± 0.3	5/5	
C#CCN[C@@H]1CCc2ccc(NC(=O)OC3CC(C)(C)N([O])C(C)(C)C3)cc21 [Compound A11, (3-Prop-2-ynylamino-indan-5-yl) carbamic acid 2,2,6,6-tetramethyl-1-piperidinyloxy-4-yl ester HCl]									Neuroprotection MPP+ ([5]; at 10 μM): 43% at 10; effect on EAE ([6]; discussion of results): significant beneficial effect; onset of clinical signs of EAE ([6]; discussion of results): long delay; MDD (mean disease duration) [6, 7]: 8.0 ± 2.02 days; MDO (mean day of onset) [6, 7]: 17.14 ± 0.80; MMS (mean maximal score) [6, 7]: 2.93 ± 0.76; Mean score [6, 7]: 0.65 ± 0.09; Incid. ([6]; sick animals/animals in group, dose 50 mg/kg/day, gavage x2/day, day 1 to 30): 7/13
C#CCNC1CC(C)(C)N([O])C(C)(C)C1.Cl [Compound B10, 2,2,6,6-Tetramethyl-4-(prop-2-ynylamino)-piperidine nitroxide HCl]	45%	42%		5.2 ± 0.97 days	13.6 ± 0.81	5.0 ± 0.77	3.57 ± 0.29	5/5	Neuroprotection MPP+ ([5]; at 1 & 10 μM): Active at 1 & 10; (# dead) [4]: 3
CC1(C)CC(O)CC(C)(C)N1[O] [Tempol, 4-hydroxy-2,2,6,6-tetramethylpiperidine-1-nitroxide]	25%	57%	70%						Neuroprotection MPP+ ([5]; at 0.5-1.0 mmol): Active at 0.5-1.0
